{"source": "patent US8563557B2", "about": "“Pyrimidine derivatives and their pharmaceutical use” (University Court of the University of Dundee, priority 2008, dated 2013)", "key": {"[1]": {"tested_on": "p53 and acetylated p53 in NCl H460 cancer cells", "conditions": "etoposide (10 μM); cited from earlier work"}, "[2]": {"tested_on": "p53 and acetylated p53 in MCF-7 breast adenocarcinoma cells", "assay": "Expression of p53 and acetylated p53 in MCF-7 cells treated with compound, with etoposide (FIG. 3)", "assay_type": "cell-based", "description": "Additionally, cells were treated with the same compounds in the presence of the genotoxic agent etoposide.\n(§1) Further evidence to support the selective targeting of SIRT1 and SIRT2 by these analogs came from studies in cells."}, "[3]": {"tested_on": "acetylated α-tubulin in H1299 cells", "assay": "Acetylated tubulin levels in H1299 cells treated with compound and Trichostatin A (FIG. 2)", "assay_type": "cell-based", "conditions": "H1299 cells, with Trichostatin A", "from_the_text": "Total tubulin was used as a loading control.\nas §1"}, "SIRT1": {"molecular_target": "T1, SIRT1 (Homo sapiens, UniProt Q96EB6)", "T1 sequence (Q96EB6 1-747)": "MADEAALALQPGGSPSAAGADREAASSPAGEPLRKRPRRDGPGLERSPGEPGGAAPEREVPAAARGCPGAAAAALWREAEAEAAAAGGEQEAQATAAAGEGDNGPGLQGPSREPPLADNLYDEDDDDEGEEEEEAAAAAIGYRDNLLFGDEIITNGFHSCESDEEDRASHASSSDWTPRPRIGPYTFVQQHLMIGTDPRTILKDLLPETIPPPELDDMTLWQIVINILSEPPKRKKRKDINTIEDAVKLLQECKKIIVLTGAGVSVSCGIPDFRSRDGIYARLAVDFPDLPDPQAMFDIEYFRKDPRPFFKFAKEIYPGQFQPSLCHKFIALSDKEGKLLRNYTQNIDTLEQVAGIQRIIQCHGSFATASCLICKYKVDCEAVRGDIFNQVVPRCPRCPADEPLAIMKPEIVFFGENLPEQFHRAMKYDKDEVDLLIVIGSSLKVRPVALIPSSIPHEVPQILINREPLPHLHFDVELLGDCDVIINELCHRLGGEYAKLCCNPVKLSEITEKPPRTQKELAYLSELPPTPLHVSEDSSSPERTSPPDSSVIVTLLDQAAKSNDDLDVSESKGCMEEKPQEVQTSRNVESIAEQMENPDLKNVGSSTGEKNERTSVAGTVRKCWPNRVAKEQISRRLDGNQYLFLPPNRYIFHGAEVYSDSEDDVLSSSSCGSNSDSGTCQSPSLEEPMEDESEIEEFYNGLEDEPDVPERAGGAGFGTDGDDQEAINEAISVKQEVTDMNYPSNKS", "assay": "In vitro inhibition of SIRT1 by cambinol analogs"}, "SIRT2": {"molecular_target": "T2, SIRT2 (Homo sapiens, UniProt Q8IXJ6)", "T2 sequence (Q8IXJ6 1-389)": "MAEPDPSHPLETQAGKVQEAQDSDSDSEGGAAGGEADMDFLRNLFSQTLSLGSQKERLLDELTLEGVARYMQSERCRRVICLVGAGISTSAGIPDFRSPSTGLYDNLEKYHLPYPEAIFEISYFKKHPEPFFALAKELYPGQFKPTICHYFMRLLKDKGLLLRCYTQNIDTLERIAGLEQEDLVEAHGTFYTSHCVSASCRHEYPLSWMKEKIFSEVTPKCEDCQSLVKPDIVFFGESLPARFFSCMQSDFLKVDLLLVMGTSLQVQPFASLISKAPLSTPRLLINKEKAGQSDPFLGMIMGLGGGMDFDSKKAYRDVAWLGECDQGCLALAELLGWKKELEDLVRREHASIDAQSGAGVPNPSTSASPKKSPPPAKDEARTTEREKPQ", "assay": "In vitro inhibition of SIRT2 by cambinol analogs"}, "[4]": {"conditions": "in the presence of etoposide (10 μM)"}}, "note": "“Also recorded” adds a separate entry of the source.", "data": [{"compound": "O=c1[nH]c(=S)[nH]c(-c2ccccc2)c1Cc1c(O)ccc2ccccc12", "note": "[Compound 1, 5-(2″-Hydroxy-naphthalen-1-ylmethyl)-6-phenyl-2-thioxo-2,3-dihydro-1H-pyrimidin-4-one, reference compound]", "values": [{"measurement": "levels of p53 and acetylated p53", "setting": "[1]", "result": "higher levels of p53 and acetylated p53"}, {"measurement": "concentration at which maximal p53 levels were observed", "setting": "[2]; [4]", "result": 50, "unit": "µM"}, {"measurement": "levels of p53", "setting": "[2]; [4]", "result": "increased"}]}, {"compound": "O=c1[nH]c(=S)[nH]c(-c2ccc(Br)cc2)c1Cc1c(O)ccc2ccccc12", "note": "[Compound 6b, 6-(4-Bromo-phenyl)-5-(2-hydroxy-naphthalen-1-ylmethyl)-2-thioxo-2,3-dihydro-1H-pyrimidin-4-one]", "values": [{"measurement": "acetylation of tubulin", "setting": "[3]", "result": "did not lead to an increase in acetylation of tubulin"}, {"measurement": "improvement in activity against SIRT1 compared with cambinol (1)", "setting": "SIRT1; from IC50 values", "result": 4, "unit": "fold"}, {"measurement": "selectivity for SIRT1 over SIRT2 in words", "setting": "SIRT1; in vitro", "result": "relatively selective inhibition of SIRT1; also recorded: selective SirT1 inhibitor"}, {"measurement": "IC50", "setting": "SIRT1; read-out: IC50 SIRT1, repeated at least two times", "result": "12.7 ± 2", "unit": "µM"}, {"measurement": "inhibition at 60 µM", "setting": "SIRT1; read-out: Inhibition at 60 μM ± SE (%) SIRT1", "result": "82.3 ± 1", "unit": "%"}, {"measurement": "levels of p53", "setting": "[2]; [4]", "result": "increased p53 levels"}, {"measurement": "levels of p53 acetylated at lysine 382", "setting": "[2]; in the presence of etoposide, compared to cambinol (1)", "result": "clear increase in potency compared to cambinol (1)"}, {"measurement": "activity against SIRT2 in words", "setting": "SIRT2; compared with cambinol (1)", "result": "relative lack of activity"}, {"measurement": "inhibition at 60 µM", "setting": "SIRT2; read-out: Inhibition at 60 μM ± SE (%) SIRT2", "result": "9.4 ± 1", "unit": "%"}, {"measurement": "melting point", "result": "282 to 287", "unit": "°C"}]}]}
